# From patent US20260306525A1, “COMBINATION THERAPY GLUCOCORTICOIDS AND GINSENOSIDE” (FYTAGORAS B.V., priority 2023, published 2026)
# Target: T1, GR (Homo sapiens, UniProt P04150)
# T1 sequence (P04150 1-777): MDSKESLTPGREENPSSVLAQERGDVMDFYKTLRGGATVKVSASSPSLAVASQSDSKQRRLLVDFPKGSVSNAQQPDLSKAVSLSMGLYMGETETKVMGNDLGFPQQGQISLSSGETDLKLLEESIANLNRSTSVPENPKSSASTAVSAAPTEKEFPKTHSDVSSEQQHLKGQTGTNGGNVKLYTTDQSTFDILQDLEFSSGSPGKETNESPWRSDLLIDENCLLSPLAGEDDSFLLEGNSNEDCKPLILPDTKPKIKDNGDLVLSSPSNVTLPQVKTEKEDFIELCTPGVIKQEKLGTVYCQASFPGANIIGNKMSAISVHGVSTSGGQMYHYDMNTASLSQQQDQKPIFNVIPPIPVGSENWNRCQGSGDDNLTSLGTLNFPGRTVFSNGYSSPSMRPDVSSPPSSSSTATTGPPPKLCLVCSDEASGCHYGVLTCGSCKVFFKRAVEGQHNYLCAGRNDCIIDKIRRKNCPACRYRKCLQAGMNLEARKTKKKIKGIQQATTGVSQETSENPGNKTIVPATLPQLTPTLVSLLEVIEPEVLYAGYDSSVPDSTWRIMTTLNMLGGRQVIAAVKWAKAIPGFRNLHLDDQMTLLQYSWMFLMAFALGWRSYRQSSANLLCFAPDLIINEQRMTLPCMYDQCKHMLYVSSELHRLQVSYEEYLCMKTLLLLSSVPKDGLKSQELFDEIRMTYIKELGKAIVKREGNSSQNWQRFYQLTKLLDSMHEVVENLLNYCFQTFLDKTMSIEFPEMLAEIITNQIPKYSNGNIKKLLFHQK
# Experiment: nuclear translocation of GR in HeLa cells (immunocytochemistry)
# Type: cell-based
# Parameters: nuclear translocation by immunocytochemistry (detected with anti-GR antibody D6H2L)
# Conditions: 6 h
# Protocol: HeLa (human cervical cancer) cells were cultured in Dulbecco's Modified Eagle's (DMEM) High Glucose (HG) medium without phenol red supplemented with 10% Fetal Calf Serum (FCS) and 10% Glutamax (Sigma-Aldrich). The cells were maintained at 37° C. and 5% CO2. At 24 h before adding the treatment, the medium was replaced by DMEM HG with 10% charcoal-inactivated serum and 10% Glutamax (Sigma-Aldrich). The cells were exposed to short- and long-term compound treatments. […] Subsequently, TNF-α (10 ng/ml) was added along with the compound treatments for 6 h (this last step was not added in the actinomycin-D and cycloheximide experiments).
# To determine the nuclear translocation of GR, immunocytochemistry on GR in Hela cells was performed. The cells were seeded in Nunc™ Lab-Tek™ II Chamber Slide™ System (ThermoFisher Scientific), and cultured in DMEM HG (without phenol red) supplemented with 10% charcoal inactivated serum and […] Glutamax (Sigma-Aldrich) for 48 h. […] In each experiment, 40 randomly selected cells from each treatment group were analyzed. The relative nuclear translocation of the GR was quantified by determining the integrated fluorescence intensity in the nucleus and the whole cell using Fiji ImageJ v1.53c, and these values were corrected for the mean background fluorescence. The percentage of nuclear translocation was assessed by determining the corrected density in the nucleus relative to the corrected density in the whole cell (in %).
SMILES,"nuclear translocation level of GR (Rg1 5, 10 and 20 μM, vs vehicle)","nuclear translocation level of GR (beclomethasone 0.01 μM, vs vehicle)",nuclear translocation level of GR (beclomethasone 0.1 and 1 μM)
"CC(C)=CCC[C@](C)(O[C@@H]1O[C@H](CO)[C@@H](O)[C@H](O)[C@H]1O)[C@H]1CC[C@]2(C)[C@@H]1[C@H](O)C[C@@H]1[C@@]3(C)CC[C@H](O)C(C)(C)[C@@H]3[C@@H](O[C@@H]3O[C@H](CO)[C@@H](O)[C@H](O)[C@H]3O)C[C@]12C [Rg1, (3β,6α, 12β)-3,12-Dihydroxydammar-24-ene-6,20-diyl bis-β-D-glucopyranoside]","only increased the translocation level compared to the vehicle treatment at 20 μM, still inducing only partial translocation",,
"C[C@H]1C[C@H]2[C@@H]3CCC4=CC(=O)C=C[C@]4(C)[C@@]3(Cl)[C@@H](O)C[C@]2(C)[C@@]1(O)C(=O)CO [beclomethasone, reference compound]",,significantly increased the translocation level compared to vehicle,maximal nuclear translocation was observed
